Results reported in article PMC6989399, “A drug library screen identifies Carbenoxolone as novel FOXO inhibitor that overcomes FOXO3-mediated chemoprotection in high-stage neuroblastoma” (Oncogene, 2019).
One block for each molecule: values may come before it.

Key:
FOXO6-DBD = FOXO6-DBD (Homo sapiens, UniProt A8MYZ6); test: competitive fluorescence polarization (displacement of IRE-FAM oligonucleotide), […] CBX; assay type: binding
FOXO3-DBD [1] = molecular target: FOXO3-DBD (Homo sapiens, UniProt O43524); test: competitive fluorescence polarization (displacement of IRE-FAM oligonucleotide), confirmed by FAM-EMSA; assay type: binding
FOXO4-DBD = FOXO4-DBD (Homo sapiens, UniProt P98177); test: competitive fluorescence polarization (displacement of IRE-FAM oligonucleotide), […] CBX; assay type: binding
FOXO3-DBD [2] = molecular target: T1, FOXO3-DBD (Homo sapiens, UniProt O43524 156-269); test: EMSA; 1 uM protein, 100 nM DNA; FPA: 200 mM Tris pH 7.5, 100 mM NaCl, 1 mM EDTA (BSA-precoated plates), 30 min RT (15 C, uncoated for FOXO1/3/4/6 comparison); FAM-EMSA: 20 mM Tris pH 7.5, 100; conditions: protein: recombinant; tags: N-terminal GST; His (GST-His-purified); blunt
FOXO3-DBD [3] = molecular target: T1, FOXO3-DBD; test: fluorescence polarization; 5 nM IRE-FAM, 1-350 nM protein; FPA: 200 mM Tris pH 7.5, 100 mM NaCl, 1 mM EDTA (BSA-precoated plates), 30 min RT (15 C, uncoated for FOXO1/3/4/6 comparison); FAM-EMSA: 20 mM Tris pH 7.5, 100; conditions: protein: recombinant; tags: N-terminal GST; His (GST-His-purified); blunt

T1 sequence (O43524 156-269): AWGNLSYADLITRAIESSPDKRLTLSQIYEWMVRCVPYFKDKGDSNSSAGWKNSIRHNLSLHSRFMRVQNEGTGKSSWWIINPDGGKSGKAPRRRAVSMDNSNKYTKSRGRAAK
Chain of FOXO3-DBD (Homo sapiens, UniProt O43524) (O43524 156-269): as above
Chain of FOXO4-DBD (P98177 82-207): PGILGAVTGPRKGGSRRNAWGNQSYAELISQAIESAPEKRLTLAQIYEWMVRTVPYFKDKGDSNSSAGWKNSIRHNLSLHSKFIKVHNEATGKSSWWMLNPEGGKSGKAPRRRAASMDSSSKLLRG
Chain of FOXO6-DBD (A8MYZ6 87-200): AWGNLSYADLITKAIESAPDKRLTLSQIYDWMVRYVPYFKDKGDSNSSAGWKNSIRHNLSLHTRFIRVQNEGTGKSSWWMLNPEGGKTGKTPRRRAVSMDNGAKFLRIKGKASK

- Ki (FOXO3-DBD [1]): 19 µM
Molecule: CC1(C)[C@@H](OC(=O)CCC(=O)O)CC[C@]2(C)[C@H]3C(=O)C=C4[C@@H]5C[C@@](C)(C(=O)O)CC[C@]5(C)CC[C@@]4(C)[C@]3(C)CC[C@@H]12 [CBX, Carbenoxolone]
- competitive fluorescence polarization (displacement of IRE-FAM oligonucleotide), (FOXO6-DBD): CBX binds in addition to the FOXO3-DBD, also the FOXO1-DBD, the FOXO4-DBD, as well as the FOXO6-DBD
- competitive fluorescence polarization (displacement of IRE-FAM oligonucleotide), (FOXO4-DBD): CBX binds in addition to the FOXO3-DBD, also the FOXO1-DBD, the FOXO4-DBD, as well as the FOXO6-DBD

B1: FoxP3-FAM (dsDNA)
DNA 1: AGCAAAGTTGTTTTTGATAATG
DNA 2: CATTATCAAAAACAACTTTGCT
- binding result (FOXO3-DBD [2]): binds

B2: IRE-FAM (dsDNA)
DNA 1: CTATCAAAACAACGC
DNA 2: GCGTTGTTTTGATAG
- Kd (FOXO3-DBD [3]): 0.0534 µM
